Patent publication US20170368082A1, “FORMULATIONS OF BRINCIDOFOVIR” (priority 2016, published 2017)
Like-named read-outs stand apart in the source and are kept apart here.

Assay: Phase 2 toxicokinetics of brincidofovir and cidofovir in plasma
Assay type: in vivo, Sprague-Dawley CD rats
Conditions: for Cmax/Dose / Tlast / AUClast/Dose / AUC(0-t) / Cmax / Tmax: brincidofovir in plasma; for concentration at 1 h / concentration at 2 h / concentration at 8 h / concentration at 24 h / concentration at 0 h / AUC(0-t) / Cmax / Tmax: female, Sprague-Dawley CD, rat, plasma; for concentration at 1 h / concentration at 2 h / concentration at 8 h / concentration at 24 h / concentration at 0 h: intravenous; for AUC(0-t) / Cmax / Tmax: iv; for Tmax: read-out: Tmax
Protocol: Plasma samples (108) were collected 2 hours following the initiation of dosing on Day 1 and Day 7 (Group 1), or at 1, 2, 8, and 24 hours following the initiation of dosing on Day 1, and prior to administration and at 2, 8, and 24 hours following the initiation of dosing on Day 7 (Groups 2 and 3), and analyzed to determine the concentrations of brincidofovir and the metabolite, cidofovir), by LC/MS/MS.
Approximately 0.4 mL of whole blood was obtained via the tail vein from each animal at each time point. Animals were not fasted prior to blood collection. Blood was collected into tubes containing K2EDTA anticoagulant and placed on wet ice in an upright position, per facility SOP prior to processing. Plasma was separated by centrifugation (10 minutes at approximately 2000 g, at approximately 2-8° C.). Approximately 0.10 mL of plasma was transferred into a single cryotube appropriately labeled with study number, animal number, time point, date of sampling and sample type. Remaining plasma was transferred into a second cryotube and retained as a backup sample. Plasma frozen at approximately −80±10° C. within approximately 2 hours after collection of each blood sample until analysis. Animals were euthanized (CO2 inhalation) after the final blood collection.
In general, TK parameters were estimated using mean plasma concentrations of brincidofovir and cidofovir derived from the composite blood sampling design using Phoenix WinNonLin (V 6.3).
A composite blood sampling design was used such that each rat was sampled twice per sampling day. Blood was collected via tail vein from unanesthetized animals into tubes containing anticoagulant and placed on wet ice in an upright position. Animals were not fasted prior to blood collection. Plasma was separated by centrifugation (for 10 minutes at approximately 2000 g, at approximately 2-8° C.), and transferred into individually labeled cryotubes. All cryotubes containing the collected plasma samples were appropriately labeled as to study number, animal number, time point, date of sampling and sample type. All plasma samples were obtained and frozen at approximately −80° C. (±10° C.) within approximately 2 hours after collection of each blood sample until analysis.
Rat plasma bioanalysis was conducted by Pyxant Laboratories. Plasma samples were analyzed for concentrations of brincidofovir and cidofovir using a method based upon protein precipitation extraction followed by LC-MS/MS analysis; calibration ranges for brincidofovir and cidofovir were 1.00-1500 ng/mL and 5.00-750 ng/mL, respectively, (Pyxant study number 3025) for a 50 μL aliquot of rat plasma. Sample analysis for ISR was not performed as part of this non-GLP study.
For the generation of Mean Profiles, all sample concentrations that were below the limit of quantitation (BLQ) were set to 0.
All pharmacokinetic parameter estimates were completed using a Non-Compartmental Model (Model 200-202 for IV infusion administration). The AUClast and AUCinf were calculated using the linear up log down trapezoidal rule.

[1] = 1 mg/kg 2-hour IV infusion, Male rats, Day 1
[2] = 1 mg/kg 2-hour IV infusion, Male rats, Day 7
[3] = 15 mg/kg 2-hour IV infusion, Female rats, Day 1
[4] = 15 mg/kg 2-hour IV infusion, Female rats, Day 7
[5] = 15 mg/kg 2-hour IV infusion, Male rats, Day 1
[6] = 15 mg/kg 2-hour IV infusion, Male rats, Day 7
[7] = 1 mg/kg, 1 mg/kg 2-hour IV infusion, Female rats, Day 1
[8] = 1 mg/kg, 1 mg/kg 2-hour IV infusion, Female rats, Day 7

In the case of `CCCCCCCCCCCCCCCCOCCCOP(=O)(O)CO[C@H](CO)Cn1ccc(N)nc1=O` [Brincidofovir], the Cmax/Dose [1] is reported as 235 (ng/mL)/(mg/kg), the Tlast [1] is reported as 2 h and the Cmax/Dose [2] is reported as 208 (ng/mL)/(mg/kg). For the same molecule, the Tlast [2] was 2 h, the AUClast/Dose [3] was 491 (h*ng/mL)/(mg/kg) and the Cmax/Dose [3] was 231 (ng/mL)/(mg/kg). For the same molecule, the Tlast [3] was 24 h, the AUClast/Dose [4] was 228 (h*ng/mL)/(mg/kg) and the Cmax/Dose [4] was 110 (ng/mL)/(mg/kg). For the same molecule, the Tlast [4] was 24 h, the AUClast/Dose [5] was 585 (h*ng/mL)/(mg/kg) and the Cmax/Dose [5] was 291 (ng/mL)/(mg/kg). For the same molecule, the Tlast [5] was 24 h, the AUClast/Dose [6] was 273 (h*ng/mL)/(mg/kg) and the Cmax/Dose [6] was 127 (ng/mL)/(mg/kg). The Tlast [6] was 24 h, the concentration at 1 h (1 mg/kg, brincidofovir 1 mg/kg, Female, Day 1, 1 h, read-out: brincidofovir Imputed Mean Concentration (IMC)) was 137 ng/mL and the concentration at 1 h (1 mg/kg, brincidofovir 1 mg/kg, Female, Day 1, 1 h, read-out: brincidofovir Mean Concentration (MC)) was 137 ng/mL. It also gave a concentration at 2 h (1 mg/kg, brincidofovir 1 mg/kg, Female, Day 1, 2 h, read-out: brincidofovir Imputed Mean Concentration (IMC)) of 191 ng/mL, a concentration at 2 h (1 mg/kg, brincidofovir 1 mg/kg, Female, Day 1, 2 h, read-out: brincidofovir Mean Concentration (MC)) of 191 ng/mL and a concentration at 8 h (1 mg/kg, brincidofovir 1 mg/kg, Female, Day 1, 8 h, read-out: brincidofovir Imputed Mean Concentration (IMC)) of 1.25 ng/mL. The concentration at 8 h (1 mg/kg, brincidofovir 1 mg/kg, Female, Day 1, 8 h, read-out: brincidofovir Mean Concentration (MC)) was 1.25 ng/mL, the concentration at 24 h (1 mg/kg, brincidofovir 1 mg/kg, Female, Day 1, 24 h, read-out: brincidofovir Mean Concentration (MC)) was 0 ng/mL and the concentration at 0 h (1 mg/kg, brincidofovir 1 mg/kg, Female, Day 7, 0 h, read-out: brincidofovir Imputed Mean Concentration (IMC)) was 0 ng/mL. For the same molecule, the concentration at 0 h (1 mg/kg, brincidofovir 1 mg/kg, Female, Day 7, 0 h, read-out: brincidofovir Mean Concentration (MC)) was 0 ng/mL, the concentration at 2 h (1 mg/kg, brincidofovir 1 mg/kg, Female, Day 7, 2 h, read-out: brincidofovir Imputed Mean Concentration (IMC)) was 95.4 ng/mL and the concentration at 2 h (1 mg/kg, brincidofovir 1 mg/kg, Female, Day 7, 2 h, read-out: brincidofovir Mean Concentration (MC)) was 95.4 ng/mL. It also gave a concentration at 8 h (1 mg/kg, brincidofovir 1 mg/kg, Female, Day 7, 8 h, read-out: brincidofovir Imputed Mean Concentration (IMC)) of 2.19 ng/mL, a concentration at 8 h (1 mg/kg, brincidofovir 1 mg/kg, Female, Day 7, 8 h, read-out: brincidofovir Mean Concentration (MC)) of 2.19 ng/mL and a concentration at 1 h (1 mg/kg, brincidofovir 1 mg/kg 2-h IV infusion, female rats, Day 1, 1 h, BLQ imputed as zero, read-out: Imputed Concentration, Mean) of 137 ng/mL. For the same molecule, the concentration at 1 h (1 mg/kg, brincidofovir 1 mg/kg 2-h IV infusion, female rats, Day 1, 1 h, BLQ imputed as zero, read-out: Imputed Concentration, individual animals) was 109 ng/mL, the concentration at 2 h (1 mg/kg, brincidofovir 1 mg/kg 2-h IV infusion, female rats, Day 1, 2 h, BLQ imputed as zero, read-out: Imputed Concentration, Mean) was 191 ng/mL and the concentration at 2 h (1 mg/kg, brincidofovir 1 mg/kg 2-h IV infusion, female rats, Day 1, 2 h, BLQ imputed as zero, read-out: Imputed Concentration, individual animals) was 253 ng/mL. For the same molecule, the concentration at 8 h (1 mg/kg, brincidofovir 1 mg/kg 2-h IV infusion, female rats, Day 1, 8 h, BLQ imputed as zero, read-out: Imputed Concentration, Mean) was 1.25 ng/mL, the concentration at 24 h (1 mg/kg, brincidofovir 1 mg/kg 2-h IV infusion, female rats, Day 1, 24 h, BLQ imputed as zero, read-out: Imputed Concentration, Mean) was 0 ng/mL and the concentration at 24 h (1 mg/kg, brincidofovir 1 mg/kg 2-h IV infusion, female rats, Day 1, 24 h, BLQ imputed as zero, read-out: Imputed Concentration, individual animals) was 0 ng/mL. It also gave a concentration at 0 h (1 mg/kg, brincidofovir 1 mg/kg 2-h IV infusion, female rats, Day 7, 0 h, BLQ imputed as zero, read-out: Imputed Concentration, individual animals) of 0 ng/mL, a concentration at 2 h (15 mg/kg, 15 mg/kg, female rats, Day 1, 2 h, read-out: IC (Imputed Concentration), individual animals) of 2460 ng/mL and a concentration at 8 h (15 mg/kg, 15 mg/kg, female rats, Day 1, 8 h, read-out: C (Concentration), individual animals) of 5.05 ng/mL. It also gave a concentration at 8 h (15 mg/kg, 15 mg/kg, female rats, Day 1, 8 h, read-out: IC (Imputed Concentration), individual animals) of 5.05 ng/mL, a concentration at 24 h (15 mg/kg, 15 mg/kg, female rats, Day 1, 24 h, read-out: C (Concentration), individual animals) of 2.32 ng/mL and a concentration at 24 h (15 mg/kg, 15 mg/kg, female rats, Day 1, 24 h, read-out: IC (Imputed Concentration), individual animals) of 2.32 ng/mL. The concentration at 8 h (15 mg/kg, 15 mg/kg, female rats, Day 7, 8 h, read-out: C (Concentration), individual animals) was 5.32 ng/mL, the concentration at 8 h (15 mg/kg, 15 mg/kg, female rats, Day 7, 8 h, read-out: IC (Imputed Concentration), individual animals) was 5.32 ng/mL and the concentration at 24 h (15 mg/kg, 15 mg/kg, female rats, Day 7, 24 h, read-out: C (Concentration), individual animals) was 2.37 ng/mL. It also gave an AUC(0-t) [7] of 459 ng·h/mL, a Cmax [7] of 191 ng/mL and a Tmax [7] of 2 h. It also gave an AUC(0-t) [8] of 244 ng·h/mL, a Cmax [8] of 95.4 ng/mL and a Tmax [8] of 2 h.
